In brackets after ≈: the same amount, converted by molar mass.
Key:
A549 cell line = conditions: cited from earlier work
L929 murine fibroblasts = assay: in vitro; format: cell-based; conditions: L929, MTT assay (Table S1)
Procedure: (§1) A549 human pulmonary epithelial cells (KCLB 10185), human embryonic kidney (HEK) 293 cells (KCLB 21573), human THP-1 leukemia cells (KCLB 40202), human neuroblastoma SH-SY5Y cells (KCLB 22266), Murine Raw 264.7 macrophages (KCLB 40071), and L929 murine fibroblasts (KCLB 10001) were purchased from the KCLB (Seoul, Korea). Cytotoxicity testing was performed using the MTT assay and the WST-1 cell viability assay as previously described.

[1] = system: Murine Raw 264.7 macrophages; assay: in vitro; format: cell-based; conditions: RAW, MTT assay (Table S1)
Procedure: as §1

M. tuberculosis H37Ra = assay: microbe, parasite or virus in culture; format: cell-based, Mycobacterium tuberculosis
M. tuberculosis H37Rv = assay: microbe, parasite or virus in culture; format: cell-based, Mycobacterium tuberculosis; conditions: for SI (CC50/MIC): ratio of CC50 for L929 fibroblasts to MIC for strain H37Rv

## COc1ccc2c3c(c4cc(OC)c(OC)cc4c2c1)CN1CCC[C@H]1C3 [DPG, deoxypergularinine]
A549 cell line
  CC50: 18.7 µg/mL (≈ 51.5 µM)

## COC(=O)/C(=C/c1ccc(OCc2ccccc2)cc1)c1ccc(OC)c(OC)c1 [DPGA3]
L929 murine fibroblasts
  CC50: >100 µg/mL
[1]
  CC50: >100 µg/mL
M. tuberculosis H37Ra
  MIC: 3.1 µg/mL (≈ 7.66 µM)
M. tuberculosis H37Rv
  MIC: 3.1 µg/mL (≈ 7.66 µM)
  SI (CC50/MIC): >32.2

## CCCCOc1ccc(/C=C(/C(=O)O)c2ccc(OC)c(OC)c2)cc1 [DPGA8]
L929 murine fibroblasts
  CC50: 89.5 µg/mL (≈ 251 µM)
[1]
  CC50: >100 µg/mL
M. tuberculosis H37Ra
  MIC: >100 µg/mL
M. tuberculosis H37Rv
  MIC: >100 µg/mL
  SI (CC50/MIC): <0.9

## CCCCOc1ccc(/C=C(/C(=O)OC)c2ccc(OC)c(OC)c2)cc1 [DPGA9]
L929 murine fibroblasts
  CC50: >100 µg/mL
[1]
  CC50: >100 µg/mL
M. tuberculosis H37Ra
  MIC: 25 µg/mL (≈ 67.5 µM)
M. tuberculosis H37Rv
  MIC: 25 µg/mL (≈ 67.5 µM)
  SI (CC50/MIC): >4.0
